In patent US9169241B2, “Quinolinyloxyphenylsulfonamides” (Max-Planck-Gesellschaft Zur Forderung der Wissenschaften …, priority 2009, dated 2015):
Read-outs that look alike come from different tables or passages of the source.

Key:
Assay type in all cases: cell-based
[1] = tested on: viable cells in culture; assay: Cell viability assay at 10 μM (CellTiter-Glo, Table VII); conditions: compound 10 μM, 72 h;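 note: graded A 0-20%; B 21-40%; C 41-60%; D over 60% viable cells relative to DMSO control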
Method in brief: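 Viable cell number was measured with the CellTiter-Glo Luminescent Cell Viability Assay (Promega), following the manufacturer's protocol, which quantifies ATP as a marker of metabolically active cells. In 96-well plates, 1000 cells/well in 100 μl medium were exposed to compound at 10 μM, or to DMSO control, for 72 h. Values were calculated relative to DMSO-control ATP.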

[2] = tested on: U118; assay: Matrigel outgrowth assay/branching assay; conditions: Table Vb, read-out: Total branching inhibition in Matrigel U118
Method in brief: (§1)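 Step one: Matrigel (3 mg/ml) is set for 1 h at 37° C. Step two: 5000 cells per well go on in medium with compound (0.78–3.125 μM) or DMSO. Step three: images at 48, 72 and 96 h are scored for complete loss of branching.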

[3] = tested on: SF126; assay: Matrigel outgrowth assay/branching assay; conditions: Homo sapiens, SF-126, Table Vb, read-out: Total branching inhibition in Matrigel SF126
Method in brief: as §1

[4] = tested on: A172; assay: Matrigel outgrowth assay/branching assay; conditions: Homo sapiens, A 172, Table Vb, read-out: Total branching inhibition in Matrigel A172
Method in brief: as §1

[5] = tested on: U138; assay: Apoptosis assay (Cellomics, nucleus condensation); conditions: Table III, read-out: Apoptosis induction in U138
Method in brief: (§2)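 Readout: per-nucleus Hoechst 33342 fluorescence intensity and its population variation, plus number of detected cells, by automated CCD imaging. Live cells, 5000/well; compound 0.39–12.5 μM (twofold series) vs DMSO, read at 24 h and 48 h.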

[6] = tested on: SF763; assay: Apoptosis assay (Cellomics, nucleus condensation); conditions: Table III, read-out: Apoptosis induction in SF763
Method in brief: as §2

[7] = tested on: C8161; assay: Apoptosis assay (Cellomics, nucleus condensation); conditions: Homo sapiens, Table III, read-out: Apoptosis induction in C8161
Method in brief: as §2

[8] = tested on: SF126; assay: Apoptosis assay (Cellomics, nucleus condensation); conditions: Homo sapiens, SF-126, Table III, read-out: Apoptosis induction in SF126
Method in brief: as §2

[9] = tested on: Hs578T; assay: Apoptosis assay (Cellomics, nucleus condensation); conditions: Homo sapiens, Hs-578T, Table III, read-out: Apoptosis induction in Hs578T
Method in brief: as §2

[10] = tested on: Hs578T; assay: Wound healing migration assay; conditions: Homo sapiens, Hs-578T; HS578T cell line; Table Ib
Method in brief: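 Cells seeded at 150000/24 well, grown to monolayer overnight, scratched with a pipette tip, then treated with compound at 12.5, 6.25 or 3.125 μM versus DMSO. Stopped by crystal violet fixation at 48-72 h once control wounds closed; IC50 taken as 50% wound size between t0 and t48 or t72.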

[11] = tested on: tumor cell; assay: Matrigel outgrowth assay/branching assay (Table Va)
Method in brief: as §1

[12] = Homo sapiens, HCT-116, HCT116 def, read-out: percentage (%) of viable cells HCT 116def
[13] = Homo sapiens, HCT-116, HCT116 wt, read-out: percentage (%) of viable cells HCT 116wt
[14] = Homo sapiens, HT-29, HT29, read-out: percentage (%) of viable cells HT29
[15] = Homo sapiens, NCI-H358, H358, read-out: percentage (%) of viable cells H358
[16] = Homo sapiens, NCI-H1650, H1650, read-out: percentage (%) of viable cells H1650
[17] = Homo sapiens, NCI-H1666, H1666, read-out: percentage (%) of viable cells H1666
[18] = Homo sapiens, NCI-H1975, H1975, read-out: percentage (%) of viable cells H1975
[19] = Homo sapiens, NCI-H1993, H1993, read-out: percentage (%) of viable cells H1993
[20] = Homo sapiens, A549, read-out: percentage (%) of viable cells A549
[21] = Homo sapiens, HCC827, read-out: percentage (%) of viable cells HCC827
[22] = Homo sapiens, SW480, read-out: percentage (%) of viable cells SW480
[23] = RKO, read-out: percentage (%) of viable cells RKO
[24] = Homo sapiens, C8161 cells, read-out: Total branching inhibition in Matrigel C8161
[25] = Homo sapiens, Hs-578T, Hs578T cells, read-out: Total branching inhibition in Matrigel Hs578T
[26] = U118 cells, read-out: Total branching inhibition in Matrigel U118
[27] = U138 cells, read-out: Total branching inhibition in Matrigel U138

## COc1cc2c(Oc3ccc(NS(=O)(=O)c4cc(F)ccc4F)cc3F)ccnc2cc1OCCCN1CCCCC1 [Example 1, 2,5-Difluoro-N-{3-fluoro-4-[6-methoxy-7-(3-piperidin-1-yl-propoxy)-quinolin-4-yloxy]-phenyl}-benzenesulfonamide]
[1]; [12]
  viability at 10 µM: 0 to 20%
[1]; [13]
  viability at 10 µM: 0 to 20%
[1]; [14]
  viability at 10 µM: 21 to 40%
[1]; [15]
  viability at 10 µM: 0 to 20%
[1]; [16]
  viability at 10 µM: 41 to 60%
[1]; [17]
  viability at 10 µM: 41 to 60%
[1]; [18]
  viability at 10 µM: 21 to 40%
[1]; [19]
  viability at 10 µM: 21 to 40%
[1]; [20]
  viability at 10 µM: > 60%
[1]; [21]
  viability at 10 µM: 21 to 40%
[1]; [22]
  viability at 10 µM: 0 to 20%
[1]; [23]
  viability at 10 µM: 0 to 20%
[2]
  IC100: ≤ 12.5 µM
[3]
  IC100: ≤ 12.5 µM
[4]
  IC100: ≤ 12.5 µM
[5]
  IC50: ≤ 12.5 µM
[6]
  IC50: 12.5 to 50 µM
[7]
  IC50: ≤ 12.5 µM
[8]
  IC50: ≤ 12.5 µM
[9]
  IC50: ≤ 12.5 µM
[10]
  IC50: ≤ 12.5 µM
[11]; [24]
  IC50: ≤ 5 µM
[11]; [25]
  IC50: ≤ 5 µM
[11]; [26]
  IC50: ≤ 5 µM
[11]; [27]
  IC50: ≤ 5 µM

## COc1cc2c(Oc3ccc(NS(=O)(=O)c4ccccc4C(F)(F)F)cc3F)ccnc2cc1OCCCN1CCCCC1C (stereo not drawn) [Example 99, N-(3-Fluoro-4-{6-methoxy-7-[3-(2-methyl-piperidin-1-yl)-propoxy]-quinolin-4-yloxy}-phenyl)-2-trifluoromethyl-benzenesulfonamide]
[1]; [12]
  viability at 10 µM: > 60%
[1]; [13]
  viability at 10 µM: 0 to 20%
[1]; [14]
  viability at 10 µM: 21 to 40%
[1]; [15]
  viability at 10 µM: 0 to 20%
[1]; [16]
  viability at 10 µM: 21 to 40%
[1]; [17]
  viability at 10 µM: 41 to 60%
[1]; [18]
  viability at 10 µM: 21 to 40%
[1]; [19]
  viability at 10 µM: 21 to 40%
[1]; [20]
  viability at 10 µM: 21 to 40%
[1]; [21]
  viability at 10 µM: 41 to 60%
[1]; [22]
  viability at 10 µM: 0 to 20%
[1]; [23]
  viability at 10 µM: 21 to 40%
[2]
  IC100: ≤ 12.5 µM
[3]
  IC100: ≤ 12.5 µM
[4]
  IC100: > 12.5 µM
[5]
  IC50: ≤ 12.5 µM
[6]
  IC50: ≤ 12.5 µM
[7]
  IC50: ≤ 12.5 µM
[8]
  IC50: ≤ 12.5 µM
[9]
  IC50: ≤ 12.5 µM
[10]
  IC50: ≤ 12.5 µM
[11]; [24]
  IC50: 5 to 50 µM
[11]; [25]
  IC50: ≤ 5 µM
[11]; [26]
  IC50: ≤ 5 µM
[11]; [27]
  IC50: ≤ 5 µM

## COc1cc2c(Oc3ccc(NS(=O)(=O)c4ccccc4C(F)(F)F)cc3F)ccnc2cc1OCCCN(C)C [Example 100, N-{4-[7-(3-Dimethylamino-propoxy)-6-methoxy-quinolin-4-yloxy]-3-fluoro-phenyl}-2-trifluoromethyl-benzenesulfonamide]
[1]; [12]
  viability at 10 µM: 0 to 20%
[1]; [13]
  viability at 10 µM: 0 to 20%
[1]; [14]
  viability at 10 µM: 21 to 40%
[1]; [15]
  viability at 10 µM: 0 to 20%
[1]; [16]
  viability at 10 µM: 21 to 40%
[1]; [17]
  viability at 10 µM: 21 to 40%
[1]; [18]
  viability at 10 µM: 41 to 60%
[1]; [19]
  viability at 10 µM: 41 to 60%
[1]; [20]
  viability at 10 µM: > 60%
[1]; [21]
  viability at 10 µM: 21 to 40%
[1]; [22]
  viability at 10 µM: 0 to 20%
[1]; [23]
  viability at 10 µM: 0 to 20%
[2]
  IC100: ≤ 12.5 µM
[3]
  IC100: ≤ 12.5 µM
[4]
  IC100: > 12.5 µM
[5]
  IC50: ≤ 12.5 µM
[6]
  IC50: ≤ 12.5 µM
[7]
  IC50: ≤ 12.5 µM
[8]
  IC50: ≤ 12.5 µM
[9]
  IC50: ≤ 12.5 µM
[10]
  IC50: ≤ 12.5 µM
[11]; [24]
  IC50: ≤ 5 µM
[11]; [25]
  IC50: ≤ 5 µM
[11]; [26]
  IC50: ≤ 5 µM
[11]; [27]
  IC50: 5 to 50 µM
